Reference: ChEMBL document CHEMBL5465560, “Selectivity Literature for EUbOPEN Chemogenomic Library” (2024)
Blank lines part the entries; values can stand above or below the compound they belong to.

What was measured:
[1] = target: Protein arginine N-methyltransferase 5 (Homo sapiens, UniProt O14744); test: Selectivity interaction (Methyltransferase screen (radiometric assays, panel of 8 PRMTs, 21 protein lysine methyltransferases, 3 DNA methyltransferases, and one RNA methyltransferase)) EUB0000272b PRMT5
Chain of Protein arginine N-methyltransferase 5 (O14744 whole entry): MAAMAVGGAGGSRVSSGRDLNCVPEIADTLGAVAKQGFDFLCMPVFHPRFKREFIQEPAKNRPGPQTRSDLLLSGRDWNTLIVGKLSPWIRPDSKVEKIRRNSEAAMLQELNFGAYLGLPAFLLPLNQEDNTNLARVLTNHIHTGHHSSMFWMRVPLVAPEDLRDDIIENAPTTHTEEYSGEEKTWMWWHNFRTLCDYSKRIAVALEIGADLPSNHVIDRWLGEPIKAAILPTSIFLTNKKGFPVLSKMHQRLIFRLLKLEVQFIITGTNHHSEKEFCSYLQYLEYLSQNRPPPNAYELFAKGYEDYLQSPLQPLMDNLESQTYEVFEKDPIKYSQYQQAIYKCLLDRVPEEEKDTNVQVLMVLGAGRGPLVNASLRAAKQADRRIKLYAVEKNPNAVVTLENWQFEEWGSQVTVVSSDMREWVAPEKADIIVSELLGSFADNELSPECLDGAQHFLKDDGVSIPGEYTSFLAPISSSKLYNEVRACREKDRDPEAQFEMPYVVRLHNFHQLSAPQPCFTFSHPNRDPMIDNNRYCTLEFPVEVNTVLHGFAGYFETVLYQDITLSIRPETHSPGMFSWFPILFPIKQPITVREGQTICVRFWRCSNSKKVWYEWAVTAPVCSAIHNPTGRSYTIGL

[2] = target: MAP kinase-interacting serine/threonine-protein kinase 2 (Homo sapiens, UniProt Q9HBH9); test: Selectivity interaction (KinomeScan (DiscoverX)) EUB0000666a MKNK2; conditions: at 10 µM
Chain of MAP kinase-interacting serine/threonine-protein kinase 2 (Q9HBH9 whole entry, looked up): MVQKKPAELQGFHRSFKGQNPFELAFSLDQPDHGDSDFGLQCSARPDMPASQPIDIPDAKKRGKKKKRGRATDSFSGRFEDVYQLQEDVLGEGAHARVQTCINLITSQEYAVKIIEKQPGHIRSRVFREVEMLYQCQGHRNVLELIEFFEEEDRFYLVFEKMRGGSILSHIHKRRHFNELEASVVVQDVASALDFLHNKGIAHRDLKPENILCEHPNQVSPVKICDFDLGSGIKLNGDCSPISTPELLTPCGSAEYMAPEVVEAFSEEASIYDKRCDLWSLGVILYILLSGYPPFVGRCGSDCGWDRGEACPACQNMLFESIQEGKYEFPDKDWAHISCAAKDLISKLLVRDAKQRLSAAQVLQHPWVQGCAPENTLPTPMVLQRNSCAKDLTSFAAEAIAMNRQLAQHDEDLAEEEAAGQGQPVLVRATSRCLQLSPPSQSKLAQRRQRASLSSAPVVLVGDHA

[3] = target: T1, Serine/threonine-protein kinase tousled-like 1 (Homo sapiens) (UniProt Q9UKI8); test: Selectivity interaction (ActivX KiNativ screen (kinase selectivity in THP-1 cell lysates)) EUB0000639a TLK1; type: subcellular; conditions: lysate
T1 sequence (whole entry): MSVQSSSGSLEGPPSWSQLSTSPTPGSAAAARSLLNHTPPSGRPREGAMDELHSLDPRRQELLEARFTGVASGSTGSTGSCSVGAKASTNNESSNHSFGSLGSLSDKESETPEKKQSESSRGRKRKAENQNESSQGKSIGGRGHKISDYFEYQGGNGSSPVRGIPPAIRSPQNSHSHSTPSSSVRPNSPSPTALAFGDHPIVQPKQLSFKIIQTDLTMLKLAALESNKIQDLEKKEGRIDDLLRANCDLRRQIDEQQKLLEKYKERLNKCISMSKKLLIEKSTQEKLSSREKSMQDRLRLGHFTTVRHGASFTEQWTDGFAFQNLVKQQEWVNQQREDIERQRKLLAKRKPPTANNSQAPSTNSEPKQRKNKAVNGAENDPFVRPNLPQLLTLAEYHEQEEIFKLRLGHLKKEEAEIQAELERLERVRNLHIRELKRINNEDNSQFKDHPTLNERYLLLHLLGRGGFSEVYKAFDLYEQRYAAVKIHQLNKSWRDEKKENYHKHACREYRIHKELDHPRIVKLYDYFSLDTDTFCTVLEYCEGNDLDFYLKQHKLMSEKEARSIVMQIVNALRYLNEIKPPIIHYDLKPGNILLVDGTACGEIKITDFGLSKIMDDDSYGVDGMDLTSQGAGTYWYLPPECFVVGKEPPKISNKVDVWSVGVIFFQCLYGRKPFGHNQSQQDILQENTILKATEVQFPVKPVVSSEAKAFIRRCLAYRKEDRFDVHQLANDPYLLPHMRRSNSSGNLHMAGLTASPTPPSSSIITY

[4] = target: Interleukin-1 receptor-associated kinase 1 (Homo sapiens) (UniProt P51617); test: Selectivity interaction (Kinase panel (Invitrogen)) EUB0000639a IRAK1; conditions: at 200 nM
Chain of Interleukin-1 receptor-associated kinase 1 (Homo sapiens) (P51617 whole entry, looked up): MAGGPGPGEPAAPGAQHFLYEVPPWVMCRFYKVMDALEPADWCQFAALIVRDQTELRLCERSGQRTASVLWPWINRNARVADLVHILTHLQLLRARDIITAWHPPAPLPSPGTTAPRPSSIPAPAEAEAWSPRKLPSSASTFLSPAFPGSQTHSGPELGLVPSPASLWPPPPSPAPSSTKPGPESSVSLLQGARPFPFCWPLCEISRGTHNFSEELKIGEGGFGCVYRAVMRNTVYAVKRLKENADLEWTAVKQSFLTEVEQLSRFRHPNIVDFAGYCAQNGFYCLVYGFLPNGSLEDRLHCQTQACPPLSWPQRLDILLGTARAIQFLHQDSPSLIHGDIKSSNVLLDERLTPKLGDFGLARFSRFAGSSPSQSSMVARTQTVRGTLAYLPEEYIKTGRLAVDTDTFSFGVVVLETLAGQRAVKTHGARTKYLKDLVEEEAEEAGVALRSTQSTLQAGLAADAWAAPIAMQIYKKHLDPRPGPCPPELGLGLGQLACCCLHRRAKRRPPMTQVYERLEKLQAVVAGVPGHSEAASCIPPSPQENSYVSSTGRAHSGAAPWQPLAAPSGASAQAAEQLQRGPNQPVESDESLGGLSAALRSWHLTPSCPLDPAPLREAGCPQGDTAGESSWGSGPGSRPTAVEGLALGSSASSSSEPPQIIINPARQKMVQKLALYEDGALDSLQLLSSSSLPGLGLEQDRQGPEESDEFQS

[5] = target: T2, Tyrosine-protein kinase ZAP-70 (Homo sapiens) (UniProt P43403); test: Selectivity interaction (KinomeScan (DiscoverX)) EUB0000655a ZAP70; conditions: at 10 µM
T2 sequence (whole entry): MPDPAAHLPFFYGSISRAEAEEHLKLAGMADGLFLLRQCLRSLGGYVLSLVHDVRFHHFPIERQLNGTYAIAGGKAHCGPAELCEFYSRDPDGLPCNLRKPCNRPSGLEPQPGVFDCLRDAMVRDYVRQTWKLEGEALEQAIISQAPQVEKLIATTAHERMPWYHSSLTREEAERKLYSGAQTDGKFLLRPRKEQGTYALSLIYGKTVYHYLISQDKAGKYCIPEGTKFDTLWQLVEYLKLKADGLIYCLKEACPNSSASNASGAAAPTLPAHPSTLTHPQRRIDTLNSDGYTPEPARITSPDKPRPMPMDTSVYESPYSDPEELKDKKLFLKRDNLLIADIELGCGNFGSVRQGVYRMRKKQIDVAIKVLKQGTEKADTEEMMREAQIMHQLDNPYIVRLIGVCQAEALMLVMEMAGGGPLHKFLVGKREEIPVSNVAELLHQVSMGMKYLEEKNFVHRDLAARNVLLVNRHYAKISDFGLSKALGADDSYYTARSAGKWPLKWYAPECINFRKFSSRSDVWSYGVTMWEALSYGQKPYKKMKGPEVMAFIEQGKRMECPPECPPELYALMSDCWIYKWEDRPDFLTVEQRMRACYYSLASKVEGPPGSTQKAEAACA

[6] = target: Serine/threonine-protein kinase PAK 4 (Homo sapiens, UniProt O96013); test: Selectivity interaction (KinomeScan (DiscoverX)) EUB0000045b PAK4
Chain of Serine/threonine-protein kinase PAK 4 (O96013 whole entry, looked up): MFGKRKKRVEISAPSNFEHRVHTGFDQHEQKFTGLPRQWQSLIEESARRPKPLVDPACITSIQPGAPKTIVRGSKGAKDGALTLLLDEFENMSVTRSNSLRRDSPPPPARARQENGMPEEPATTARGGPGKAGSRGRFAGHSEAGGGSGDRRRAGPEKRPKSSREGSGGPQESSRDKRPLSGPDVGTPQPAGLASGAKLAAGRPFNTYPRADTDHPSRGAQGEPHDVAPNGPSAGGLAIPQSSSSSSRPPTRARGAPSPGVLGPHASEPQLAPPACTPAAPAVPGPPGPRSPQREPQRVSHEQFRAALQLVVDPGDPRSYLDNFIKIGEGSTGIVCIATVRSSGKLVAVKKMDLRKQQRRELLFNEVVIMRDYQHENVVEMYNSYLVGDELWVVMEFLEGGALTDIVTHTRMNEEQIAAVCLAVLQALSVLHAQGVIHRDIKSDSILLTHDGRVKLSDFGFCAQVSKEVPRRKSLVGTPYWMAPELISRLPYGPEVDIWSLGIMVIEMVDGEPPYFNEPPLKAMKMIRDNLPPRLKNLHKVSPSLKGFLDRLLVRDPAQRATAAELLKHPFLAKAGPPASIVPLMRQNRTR

[7] = target: SRSF protein kinase 2 (Homo sapiens) (UniProt P78362); test: Selectivity interaction (KinomeScan (DiscoverX)) EUB0001619a SRPK2; conditions: at 1 µM
Chain of SRSF protein kinase 2 (Homo sapiens) (P78362 whole entry, looked up): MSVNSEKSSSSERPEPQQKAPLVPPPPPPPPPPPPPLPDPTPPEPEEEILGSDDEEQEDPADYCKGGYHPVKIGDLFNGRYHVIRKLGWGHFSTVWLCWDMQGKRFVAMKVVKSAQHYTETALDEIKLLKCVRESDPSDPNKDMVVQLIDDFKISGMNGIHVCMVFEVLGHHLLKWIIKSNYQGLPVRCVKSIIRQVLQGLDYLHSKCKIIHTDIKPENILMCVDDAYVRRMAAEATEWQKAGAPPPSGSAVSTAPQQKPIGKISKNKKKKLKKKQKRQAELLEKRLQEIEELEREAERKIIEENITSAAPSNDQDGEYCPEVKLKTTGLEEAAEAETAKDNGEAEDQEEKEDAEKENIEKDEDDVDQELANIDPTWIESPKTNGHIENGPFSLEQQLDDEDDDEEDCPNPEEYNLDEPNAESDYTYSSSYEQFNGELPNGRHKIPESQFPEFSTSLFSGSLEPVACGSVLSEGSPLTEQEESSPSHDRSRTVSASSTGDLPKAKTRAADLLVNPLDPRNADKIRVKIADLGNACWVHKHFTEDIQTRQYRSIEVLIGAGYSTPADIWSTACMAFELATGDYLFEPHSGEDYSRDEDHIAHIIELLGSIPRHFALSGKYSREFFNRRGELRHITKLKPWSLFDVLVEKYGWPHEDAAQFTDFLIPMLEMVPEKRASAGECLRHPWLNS

[8] = target: T3, Serine/threonine-protein kinase ULK1 (Homo sapiens) (UniProt O75385); test: Selectivity interaction (KinomeScan (DiscoverX)) EUB0001619a ULK1; conditions: at 1 µM
T3 sequence (whole entry): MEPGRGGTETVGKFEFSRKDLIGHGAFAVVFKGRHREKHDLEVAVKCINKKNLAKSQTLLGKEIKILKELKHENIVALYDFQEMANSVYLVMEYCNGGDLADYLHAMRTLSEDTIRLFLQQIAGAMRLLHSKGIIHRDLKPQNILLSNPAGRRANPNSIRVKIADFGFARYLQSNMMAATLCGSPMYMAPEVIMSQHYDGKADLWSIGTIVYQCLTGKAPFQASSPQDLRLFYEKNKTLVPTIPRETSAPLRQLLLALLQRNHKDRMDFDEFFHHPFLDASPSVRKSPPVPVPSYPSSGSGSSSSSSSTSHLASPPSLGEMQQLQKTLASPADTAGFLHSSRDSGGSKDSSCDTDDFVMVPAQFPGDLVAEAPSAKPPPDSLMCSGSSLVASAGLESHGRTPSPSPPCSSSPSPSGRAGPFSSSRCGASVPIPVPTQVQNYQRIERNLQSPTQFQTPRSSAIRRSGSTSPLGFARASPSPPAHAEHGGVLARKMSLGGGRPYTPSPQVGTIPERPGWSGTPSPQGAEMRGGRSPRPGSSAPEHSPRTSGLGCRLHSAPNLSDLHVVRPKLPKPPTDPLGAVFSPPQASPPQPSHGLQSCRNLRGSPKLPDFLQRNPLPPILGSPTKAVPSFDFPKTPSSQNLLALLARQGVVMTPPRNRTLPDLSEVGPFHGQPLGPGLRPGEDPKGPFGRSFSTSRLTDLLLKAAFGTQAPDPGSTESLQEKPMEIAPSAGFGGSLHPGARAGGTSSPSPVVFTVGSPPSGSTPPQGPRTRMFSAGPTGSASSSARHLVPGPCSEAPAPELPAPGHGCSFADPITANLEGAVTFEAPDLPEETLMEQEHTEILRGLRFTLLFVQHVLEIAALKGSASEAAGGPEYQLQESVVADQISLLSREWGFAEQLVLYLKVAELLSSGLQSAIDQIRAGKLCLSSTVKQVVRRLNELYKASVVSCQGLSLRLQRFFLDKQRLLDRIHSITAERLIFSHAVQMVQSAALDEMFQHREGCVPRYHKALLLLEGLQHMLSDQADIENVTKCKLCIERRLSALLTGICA

- % of activity ([1]; at 1 µM): 98.7%
- % of activity ([1]; at 10 µM): 99%
SMILES: Cc1cc(C)cc([C@H]2c3cc(C)ccc3NC(=O)CN2C(=O)c2ccc(Br)s2)c1

SMILES: O=C(NOC[C@H](O)CO)c1ccc(F)c(F)c1Nc1ccc(I)cc1F
- % of control [2]: 100%

- % of inhibition ([3]; at 0.01 µM): 10.2%
- % of inhibition ([3]; at 0.04 µM): 21.8%
- % of inhibition ([3]; at 0.2 µM): 4.8%
- % of inhibition ([3]; at 1 µM): 54%
- % of inhibition ([3]; at 5 µM): 62.2%
- % of inhibition [4]: 91.4%
SMILES: CC[C@@H]1[C@H](F)C(=O)N[C@@H]1COc1nccc2cc(C(N)=O)c(OC)cc12 [ZIMLOVISERTIB]

SMILES: CN(C)CCOc1ccc(-c2nc(-c3ccncc3)c(-c3ccc4c(c3)CC/C4=N\O)[nH]2)cc1
- % of control [5]: 100%

SMILES: C=CC(=O)Nc1cc(-n2c(=O)ccc3cnc4ccc(-c5ccc(NS(C)(=O)=O)cc5)cc4c32)ccc1C
- % of control ([6]; at 1 µM): 100%
- % of control ([6]; at 10 µM): 100%

SMILES: N#Cc1cccc(-c2c[nH]c3ncnc(N4CCOCC4)c23)c1
- % of control [7]: 70%
- % of control [8]: 65%
